Reference: paper PMC7180830, “Scaffold Hopping in Discovery of HIV-1 Non-Nucleoside Reverse Transcriptase Inhibitors: From CH(CN)-DABOs to CH(CN)-DAPYs” (Molecules, 2020)

Columns and labels:
[1] = system: HIV-1 F227L + V106A mutant strain; assay: Anti-HIV assay against double mutant F227L + V106A in MT-4 cells; assay type: cell-based; settings: Human immunodeficiency virus 1, MT4, read-out: EC50 F227L + V106A
Protocol: (§2) Evaluation of the antiviral activity of the compounds against HIV in MT-4 cells was performed using the MTT assay as previously described [24, 25]. […] Prior to use in our assays, every freshly grown virus stock was the subject of a genotypic analysis. In addition to the genotypic analysis, every stock was subject to a phenotypic analysis using a panel of relevant reference compounds in MT-4 cells. […] Stock solutions (10× final concentration) of test compounds were added in 25 μL volumes to two series of triplicate wells so as to allow simultaneous evaluation of their effects on mock- and HIV-infected cells at the beginning of each experiment. Serial 5-fold dilutions of test compounds were made directly in flat-bottomed 96-well microtiter trays using a Biomek 3000 robot (Beckman instruments, Fullerton, CA). Untreated HIV- and mock-infected cell samples were included as controls. HIV stock (50 μL) at 100–300 CCID50 (50% cell culture infectious doses) and culture medium (final 200 μL volume per well) were added to either the infected or mock-infected wells of the microtiter tray. Mock-infected cells were used to evaluate the effects of test compounds on uninfected cells in order to assess the cytotoxicity of the test compounds. Exponentially growing MT-4 cells were centrifuged for 5 min at 220× g and the supernatant was discarded. The MT-4 cells were resuspended at 6 × 10^5 cells/mL and 50 μL volumes were transferred to the microtiter tray wells. Five days after infection, the viability of mock- and HIV-infected cells was examined spectrophotometrically using the MTT assay. The MTT assay is based on the reduction of yellow colored 3-(4,5-dimethylthiazol-2-yl)-2,5-diphenyltetrazolium bromide (MTT) (Acros Organics, Geel, Belgium) by mitochondrial dehydrogenase activity in metabolically active cells to a blue-purple formazan that can be measured spectrophotometrically. The absorbances were read in an eight-channel computer-controlled photometer (Infinite M1000, Tecan, Männedorf, Switzerland) at two wavelengths (540 and 690 nm). All data were calculated using the median absorbance value of three wells.

HIV-1 IIIB = assay: Anti-HIV assay against wild-type HIV-1 (IIIB) in MT-4 cells, MTT method; assay type: cell-based; settings: for SI (selectivity index, ratio CC50/EC50 (WT)): CC50/EC50 WT HIV-1 IIIB, MT-4 cells; for EC50: Human immunodeficiency virus 1, IIIB, MT4, read-out: EC50 HIV-1 IIIB
Protocol: (§1) Untreated HIV- and mock-infected cell samples were included as controls. […] Five days after infection, the viability of mock- and HIV-infected cells was examined spectrophotometrically using the MTT assay. […] All data were calculated using the median absorbance value of three wells.

[2] = system: HIV-1 E138K mutant strain; assay: Anti-HIV assay against E138K mutant strain in MT-4 cells; assay type: cell-based; settings: Human immunodeficiency virus 1, MT4, read-out: EC50 E138K
Protocol: as §2

[3] = system: HIV-1 Y181C mutant strain; assay: Anti-HIV assay against Y181C mutant strain in MT-4 cells; assay type: cell-based; settings: Human immunodeficiency virus 1, MT4, read-out: EC50 Y181C
Protocol: as §2

[4] = system: HIV-1 K103N mutant strain; assay: Anti-HIV assay against K103N mutant strain in MT-4 cells; assay type: cell-based; settings: Human immunodeficiency virus 1, MT4, read-out: EC50 K103N
Protocol: as §2

[5] = Cytotoxicity in mock-infected MT-4 cells, MTT method; settings: human, mock-infected (uninfected) MT-4 cells
Protocol: as §1

[6] = system: HIV-1 K103N + Y181C mutant strain; assay: Anti-HIV assay against double mutant K103N + Y181C in MT-4 cells; assay type: cell-based; settings: Human immunodeficiency virus 1, MT4, read-out: EC50 K103N + Y181C
Protocol: as §2

[7] = system: HIV-1 L100I mutant strain; assay: Anti-HIV assay against L100I mutant strain in MT-4 cells; assay type: cell-based; settings: Human immunodeficiency virus 1, MT4, read-out: EC50 L100I
Protocol: as §2

MT-4 cells = assay: Cytotoxicity in mock-infected MT-4 cells, MTT method; settings: MT-4 cells; relative to RPV CC50
Protocol: as §1

WT HIV-1 RT = target: T1, WT HIV-1 RT (Human immunodeficiency virus type 1 group M subtype B, UniProt P03366); assay: Reverse transcriptase assay (EnzCheck kit, PicoGreen); assay type: biochemical; settings: recombinant wild type p66/p51 HIV-1 RT
T1 construct: Recombinant wild type p66/p51 HIV-1 RT; made in house
Protocol: The RT assay was performed with the EnzCheck Reverse Transcriptase Assay kit (Molecular Probes, Invitrogen), as described by the Manufacturer. The assay is based on the dsDNA quantitation reagent PicoGreen. […] This condition is met in the assay. A poly(rA) template of approximately 350 bases long and an oligo (dT)16 primer are annealed in a molar ratio of 1:1.2 (60 min at room temperature). Then, 52 ng of the RNA/DNA is brought into each well of a 96-well plate in a volume of 20 μL polymerization buffer (60 mM Tris-HCl, 60 mM KCl, 8 mM MgCl2, 13 mM DTT, 100 μM dTTP, pH 8.1). Then, 5 μL of RT enzyme solution, diluted to a suitable concentration in enzyme dilution buffer (50 mM Tris-HCl, 20% glycerol, 2 mM DTT, pH 7.6), is added. The reactions are incubated at 25 °C for 40 min and then stopped by the addition of EDTA (15 mM fc). Heteroduplexes are then detected by addition of PicoGreen. Signals are read using an excitation wavelength of 490 nm and emission detection at 523 nm using a spectrofluorometer (Safire 2, Tecan). To test the activity of compounds against RT, 1 μL of compound in DMSO was added to each well before the addition of RT enzyme solution. Control wells without compound contained the same amount of DMSO. Results are expressed as relative fluorescence, i.e., the fluorescence signal of the reaction mix with compound divided by the signal of the same reaction mix without compound.

Structure (SMILES): COc1cc(C(C#N)c2ccnc(Nc3ccc(C#N)cc3)n2)ccc1C#N (stereo not shown) [Compound A4, 4-(4-(cyano-(3-methoxy-4-cyanophenyl)methyl)-pyrimidin-2-ylamino)benzonitrile]
- EC50 [1]: ≥ 61000 nM
- SI (selectivity index, ratio CC50/EC50 (WT)) (HIV-1 IIIB): 7
- EC50 (HIV-1 IIIB): 11700 ± 12100 nM
- EC50 [2]: ≥ 56600 nM
- EC50 [3]: ≥ 48100 nM
- EC50 [4]: ≥ 62200 nM
- melting point: 156.2 to 157 °C
- CC50 at 5 days [5]: 78400 ± 10400 nM
- EC50 [6]: ≥ 65700 nM
- EC50 [7]: ≥ 61400 nM

Structure (SMILES): COc1cc(C#N)ccc1C(C#N)c1ccnc(Nc2ccc(C#N)cc2)n1 (stereo not shown) [Compound A5, 4-(4-(cyano-(2-methoxy-4-cyanophenyl)methyl)-pyrimidin-2-ylamino)benzonitrile]
- EC50 [1]: ≥ 12400 nM
- SI (selectivity index, ratio CC50/EC50 (WT)) (HIV-1 IIIB): 434
- EC50 (HIV-1 IIIB): 59 ± 11 nM
- fold higher activity than the 3-substituted analogue (A4) (HIV-1 IIIB; WT HIV-1 IIIB, relative to A4): 200 fold
- EC50 [2]: 1630 ± 320 nM
- EC50 [3]: 1250 ± 580 nM
- EC50 [4]: 680 ± 160 nM
- melting point: 189.4 to 190.1 °C
- CC50 at 5 days [5]: 25800 ± 8700 nM
- CC50 fold higher than that of RPV (MT-4 cells): about 5 fold
- EC50 [6]: > 25800 nM
- EC50 [7]: 4720 ± 790 nM

Structure (SMILES): N#Cc1ccc(Nc2nccc(C(C#N)c3ccc(C#N)cc3C(F)(F)F)n2)cc1 (stereo not shown) [Compound A6, 4-(4-(cyano-(2-trifluoromethyl-4-cyanophenyl)methyl)-pyrimidin-2-ylamino)benzonitrile]
- EC50 [1]: > 6230 nM
- SI (selectivity index, ratio CC50/EC50 (WT)) (HIV-1 IIIB): 13
- EC50 (HIV-1 IIIB): 490 ± 300 nM
- EC50 [2]: > 6230 nM
- EC50 [3]: 2290 ± 20 nM
- EC50 [4]: > 6230 nM
- melting point: 236.7 to 237.5 °C
- CC50 at 5 days [5]: 6200 ± 1400 nM
- EC50 [6]: > 6230 nM
- EC50 [7]: > 6230 nM

Structure (SMILES): N#Cc1ccc(Nc2nccc(C(C#N)c3ccc(C#N)cc3F)n2)cc1 (stereo not shown) [Compound A7, 4-(4-(cyano-(2-fluoro-4-cyanophenyl)methyl)-pyrimidin-2-ylamino)benzonitrile]
- EC50 [1]: > 10400 nM
- SI (selectivity index, ratio CC50/EC50 (WT)) (HIV-1 IIIB): 43
- EC50 (HIV-1 IIIB): 240 ± 160 nM
- EC50 [2]: > 10400 nM
- EC50 [3]: > 10400 nM
- EC50 [4]: > 10400 nM
- melting point: 165.7 to 166.5 °C
- CC50 at 5 days [5]: 10300 ± 4500 nM
- EC50 [6]: > 10400 nM
- EC50 [7]: > 10400 nM

Structure (SMILES): N#Cc1ccc(Nc2nccc(C(C#N)c3ccc(C#N)cc3Br)n2)cc1 (stereo not shown) [Compound A9, 4-(4-(cyano-(2-bromo-4-cyanophenyl)methyl)-pyrimidin-2-ylamino)benzonitrile]
- EC50 [1]: > 3350 nM
- SI (selectivity index, ratio CC50/EC50 (WT)) (HIV-1 IIIB): 42
- EC50 (HIV-1 IIIB): 79 ± 20 nM
- EC50 [2]: 2310 ± 20 nM
- EC50 [3]: 1880 ± 420 nM
- EC50 [4]: ≥ 1880 nM
- melting point: 223.5 to 224.7 °C
- CC50 at 5 days [5]: 3400 ± 300 nM
- EC50 [6]: > 3350 nM
- EC50 [7]: > 3350 nM

Structure (SMILES): N#Cc1ccc(Nc2nccc(C(C#N)c3c(Cl)cc(C#N)cc3Cl)n2)cc1 (stereo not shown) [Compound A10, 4-(4-(cyano-(2,6-dichloro-4-cyanophenyl)methyl)-pyrimidin-2-ylamino)benzonitrile]
- EC50 [1]: > 4490 nM
- SI (selectivity index, ratio CC50/EC50 (WT)) (HIV-1 IIIB): 55
- EC50 (HIV-1 IIIB): 82 ± 20 nM
- EC50 [2]: 2190 ± 220 nM
- EC50 [3]: 2200 ± 270 nM
- EC50 [4]: 1780 ± 120 nM
- melting point: 152.5 to 153.2 °C
- CC50 at 5 days [5]: 4500 ± 1300 nM
- EC50 [6]: > 4490 nM
- EC50 [7]: 2320 ± 480 nM

Structure (SMILES): Cc1cnc(Nc2ccc(C#N)cc2)nc1C(C#N)c1ccc(C#N)cc1 (stereo not shown) [Compound B1, 4-(4-(cyano-(4-cyanophenyl)methyl)-5-methylpyrimidin-2-ylamino)benzonitrile]
- EC50 [1]: ≥ 59000 nM
- SI (selectivity index, ratio CC50/EC50 (WT)) (HIV-1 IIIB): 356
- EC50 (HIV-1 IIIB): 300 ± 110 nM
- EC50 [2]: 4920 ± 300 nM
- EC50 [3]: 7050 ± 960 nM
- EC50 [4]: 3950 ± 220 nM
- melting point: 243.1 to 243.7 °C
- CC50 at 5 days [5]: 109000 ± 80000 nM
- EC50 [6]: > 109000 nM
- IC50 (WT HIV-1 RT): 1460 ± 90 nM
- EC50 [7]: 8030 ± 4430 nM

Structure (SMILES): Cc1cnc(Nc2ccc(C#N)cc2)nc1C(C#N)c1ccc(C#N)cc1F (stereo not shown) [Compound B2, 4-(4-(cyano-(2-fluoro-4-cyanophenyl)methyl)-5 methylpyrimidin-2-ylamino)benzonitrile]
- EC50 [1]: > 20600 nM
- EC50 (HIV-1 IIIB): 40 ± 20 nM
- EC50 [2]: 970 ± 140 nM
- EC50 [3]: 1590 ± 180 nM
- EC50 [4]: 1070 ± 370 nM
- CC50 at 5 days [5]: 20600 ± 3600 nM
- EC50 [6]: > 20600 nM
- IC50 (WT HIV-1 RT): 220 ± 50 nM
- EC50 [7]: 3040 ± 1130 nM

Structure (SMILES): Cc1cnc(Nc2ccc(C#N)cc2)nc1C(C#N)c1ccc(C#N)cc1Cl (stereo not shown) [Compound B3, 4-(4-(cyano-(2-chloro-4-cyanophenyl)methyl)-5-methylpyrimidin-2-ylamino)benzonitrile]
- EC50 [1]: 4040 ± 700 nM
- SI (selectivity index, ratio CC50/EC50 (WT)) (HIV-1 IIIB): 920
- EC50 (HIV-1 IIIB): 10 ± 10 nM
- EC50 [2]: 140 ± 30 nM
- EC50 [3]: 260 ± 20 nM
- EC50 [4]: 80 ± 20 nM
- melting point: 213.6 to 214.2 °C
- CC50 at 5 days [5]: 9600 ± 2700 nM
- EC50 [6]: > 9560 nM
- IC50 (WT HIV-1 RT): 50 ± 30 nM
- EC50 [7]: 820 ± 150 nM

Structure (SMILES): Cc1cnc(Nc2ccc(C#N)cc2)nc1C(C#N)c1ccc(C#N)cc1Br (stereo not shown) [Compound B4, 4-(4-(cyano-(2-bromo-4-cyanophenyl)methyl)-5-methylpyrimidin-2-ylamino)benzonitrile]
- EC50 [1]: 2350 ± 180 nM
- EC50 (HIV-1 IIIB): 6 ± 1 nM
- EC50 [2]: 110 ± 40 nM
- EC50 [3]: 160 ± 170 nM
- EC50 [4]: 80 ± 30 nM
- CC50 at 5 days [5]: 6600 ± 1300 nM
- EC50 [6]: > 6620 nM
- IC50 (WT HIV-1 RT): 60 ± 30 nM
- EC50 [7]: 510 ± 190 nM

Structure (SMILES): Cc1cnc(Nc2ccc(C#N)cc2)nc1C(C#N)c1ccc(C#N)c(Cl)c1C (stereo not shown) [Compound B5, 4-(4-(cyano-(2-methyl-3-chloro-4-cyanophenyl)methyl)-5-methylpyrimidin-2-ylamino)benzonitrile]
- EC50 [1]: 1660 ± 270 nM
- SI (selectivity index, ratio CC50/EC50 (WT)) (HIV-1 IIIB): 370
- EC50 (HIV-1 IIIB): 20 ± 8 nM
- EC50 [2]: 600 ± 100 nM
- EC50 [3]: 1020 ± 200 nM
- EC50 [4]: 390 ± 70 nM
- melting point: 205.4 to 206.5 °C
- CC50 at 5 days [5]: 8600 ± 2200 nM
- EC50 [6]: > 8580 nM
- IC50 (WT HIV-1 RT): 70 ± 20 nM
- EC50 [7]: 1820 ± 400 nM

Structure (SMILES): Cc1cc(C#N)c(Br)cc1C(C#N)c1nc(Nc2ccc(C#N)cc2)ncc1C (stereo not shown) [Compound B6, 4-(4-(cyano-(2-methyl-5-bromo-4-cyanophenyl)methyl)-5-methylpyrimidin-2-ylamino)benzonitrile]
- EC50 [1]: 1520 ± 150 nM
- SI (selectivity index, ratio CC50/EC50 (WT)) (HIV-1 IIIB): 1215
- EC50 (HIV-1 IIIB): 8 ± 4 nM
- EC50 [2]: 170 ± 60 nM
- EC50 [3]: 330 ± 100 nM
- EC50 [4]: 60 ± 10 nM
- melting point: 232.3 to 233.9 °C
- CC50 at 5 days [5]: 9800 ± 3500 nM
- EC50 [6]: > 9790 nM
- IC50 (WT HIV-1 RT): 60 ± 20 nM
- EC50 [7]: 860 ± 190 nM
